This note sets out measurements from patent US10583131B2, “Methods of treating pancreatic cancer” (ChemoCentryx, Inc., priority 2016, dated 2020).

As usually defined, the AUC is concentration integrated over time. A low value points to less exposure.

A short description of data set [1]: Pharmacokinetics in Sprague-Dawley rats (i.v. and oral). Format: in vivo. To be noted: for clearance / bioavailability / AUC: rat, plasma; for clearance: iv, 0.5 mg/kg; for bioavailability: po 2 mg/kg, iv 0.5 mg/kg; for AUC: po, 2 mg/kg. Here is the method: Compound Ib and PF-04136309 were dosed intravenously at 0.5 mg/kg and orally at 2 mg/kg, in aqueous hydroxypropyl methylcellulose. Blood samples were collected at predetermined time points after each dosing and the corresponding plasma concentrations of Compound Ib and PF-04136309 were analyzed using an LC-MS/MS method. Plasma concentration-time curves were constructed and the corresponding pharmacokinetic parameters were derived using non-compartmental analysis.
Blood (0.2 mL) was sampled through the jugular vein or cardiac puncture (for terminal point only) at pre-dose, 2, 5, 10, 15, and 30 min, 1, 2, 4, 6, and 8 hours post-dose for i.v. dosing and at pre-dose, 5, 15, and 30 min, 1, 1.5, 2, 4, 6, and 8 hours post-dose for oral dosing. Blood samples were collected into chilled polypropylene tubes containing sodium EDTA as the anticoagulant and plasma was collected through centrifugation (Eppendorf Centrifuge 5417R) at 10,000 rpm and 4° C. for 6 minutes and stored at −20° C. until analysis.
Plasma samples (50 μL) were extracted with 200 μL acetonitrile containing the internal standard on a linear shaker for 10 min and then centrifuged at 3700 g for 10 min at 4° C. (Allegra X-15R centrifuge, Beckman Coulter, Inc., Fullerton, Calif.). 100 μL of the resulting supernatant was transferred into a new plate and mixed with 100 μL 0.1% formic acid in water for LC-MS/MS analysis.
Calibration standard samples were prepared with blank Sprague-Dawley rat plasma, at 5000, 2500, 1000, 500, 100, 50, 20, 10, 4, 2 and 1 ng/mL of compound. Three levels of the standard stock solutions (1000, 100 and 10 ng/mL) were spiked separately into male Sprague-Dawley rat plasma and used as QC samples. Plasma standards and QC samples were treated identically and prepared in parallel with the plasma samples. Extracted samples were analyzed by LC-MS/MS.
Mass spectrometer acquisition and integration were performed with Applied Biosystems-Sciex Analyst software (version 1.4.2). The calibration curve was obtained through a quadratic regression and the calibration range was 2-5000 ng/mL.
Instrument: • API 3000 mass spectrometer (Applied Biosystems, Foster City, Calif.) • Agilent 1100 HPLC binary pump (Santa Clara, Calif.) • LEAP Technologies HTS Pal Autosampler (Carrboro, N.C.) • Thermo Scientific Cohesive Aria LX-2 duplexing system (Waltham, Mass.) Column: Zorbax Eclipse XDB Phenyl 2.1×50 mm (Agilent, Santa Clara, Calif.) Injection Volume: 10 μL Flow Rate: 0.60 mL/min
Ionization Mode: Electrospray (ESI). Detection Mode: Positive MRM. For each dosing route, descriptive pharmacokinetic parameters were determined by a standard non-compartmental analysis (Wagner, 1993) from the plasma concentration-time curve. Pharmacokinetic analysis was performed by using XLFit® v.4.3.1 (ID Business Solutions Inc., Alameda, Calif.) in conjunction with Microsoft Excel 2003.

The nature of data set [2]: Pharmacokinetics of compound Ib in male beagle dogs (i.v. and oral). It is filed as in vivo. The conditions noted are these: Dog. As for the experimental part:
The pharmacokinetic profile of compound Ib was evaluated in male beagle dogs following intravenous (i.v.) and oral (p.o.) administration. A single dose of compound Ib was dosed intravenously at 0.5 mg/kg and orally at 2 mg/kg. Blood samples were collected at predetermined time points after each dosing and the corresponding plasma samples were analyzed using an LC-MS/MS method. Plasma concentration-time curves were constructed using the plasma concentrations and the corresponding pharmacokinetic parameters were derived by non-compartmental analysis.
Six animals weighing 11.5, 9.9, 9.9, 14.6, 11.1, and 9.8 kg, respectively, were used with Compound Ib dosed intravenously at 0.5 mg/kg (the first 3 animals) and orally at 2 mg/kg (the second 3 animals).
For i.v. dosing, a solution formulation of Compound Ib was prepared in 36.8% water/31.6% propylene glycol/31.6% N,N-dimethyl acetamide at 0.5 mg/mL and each animal received 1 mL/kg. For oral dosing at 2 mg/kg, a solution formulation was prepared in 1% hydroxypropyl methylcellulose at 0.5 mg/mL and each animal received 4 mL/kg.
For dosing, blood (˜1 mL) was drawn at pre-dose and at 5, 15, and 30 min, 1, 2, 4, 8, 12, and 24 hours post-dose. Blood was sampled from the foreleg vein via butterfly catheter and then placed into chilled polypropylene tubes containing K2EDTA as the anticoagulant and kept on ice until centrifugation. Plasma was collected through centrifugation and shipped on dry ice for sample analysis.
Plasma samples (50 μL) were extracted with 200 μL 0.1% formic acid/acetonitrile containing the internal standard on a linear shaker for 10 min and then centrifuged at 3700 g for 10 min at 4° C. (Allegra X-15R centrifuge, Beckman Coulter, Inc., Fullerton, Calif.). 100 μL of the resulting supernatant was transferred into a new plate and mixed with 100 μL 0.1% formic acid in water for LC-MS/MS analysis.
Calibration standard samples were prepared with blank dog plasma, at 5000, 2500, 1000, 500, 100, 50, 20, 10, 4, 2 and 1 ng/mL of Compound Ib. Three levels of the standard stock solutions (1000, 100 and 10 ng/mL) were spiked separately into male beagle dog plasma and used as QC samples. Plasma standards and QC samples were treated identically and prepared in parallel with the plasma samples.
Sample analysis was performed by LC-MS/MS (details shown below). Acquisition and peak integration were performed with the Applied Biosystems-Sciex Analyst software (version 1.4.2). Calibration curves were obtained through quadratic regression with a weighting of 1/x. The calibration range was 1-5000 ng/mL.
Instrument: • Applied Biosystems API 3000 mass spectrometer (Foster City, Calif.) • Agilent 1100 HPLC binary pump (Santa Clara, Calif.) • LEAP Technologies HTS Pal Autosampler (Carrboro, N.C.) • Thermo Scientific Cohesive Aria LX-2 duplexing system (Waltham, Mass.) Column: Zorbax Eclipse XDB Phenyl 2.1×50 mm (Agilent, Santa Clara, Calif.) Injection Volume: 10 μL Flow Rate: 0.60 mL/min
Ionization Mode: Turbo Ionspray ESI Detection Mode: Positive MRM For each dosing route, descriptive pharmacokinetic parameters were determined by a standard non-compartmental analysis (Wagner, 1993) from the plasma concentration-time curve. • CL: Total body clearance • AUC: area under the curve • F: Bioavailability.
Pharmacokinetic analysis was performed by using XLFit® v.4.3.1 (ID Business Solutions Inc., Alameda, Calif.) in conjunction with Microsoft Excel 2003.

Data set [3] concerns non-resectable pancreatic adenocarcinoma. Nature of the data set: Open-label Phase Ib clinical trial of compound Ib plus FOLFIRINOX, response by RECIST 1.1. Format: in vivo, patients. To be noted: for Tumor control rate: 12 weeks of treatment, 150 mg twice daily plus FOLFIRINOX; for Progressive disease / Stable disease / Overall response rate: 12 weeks, plus FOLFIRINOX; for Overall response rate: RECIST 1.1, all partial responses. Here is the method:
Fifty-four patients age 18 years or older were enrolled on an open-label phase 1-b interventional study to evaluate the safety and efficacy of compound Ib in patients with pancreatic adenocarcinoma also receiving FOLFIRINOX chemotherapy. Dosing consisted of 150 mg tablets for oral administration once or twice daily given orally for at least 12 weeks.
Inclusion criteria included: • Histologically or cytologically confirmed non-resectable pancreatic adenocarcinoma with or without metastases • Eastern Cooperative Oncology Group (ECOG) performance status score ≤2 • Anticipated life expectancy a ≥12 weeks • Radiographically measurable disease acc. to RECIST 1.1 • Use of adequate contraception (as described in protocol) • Ability to provide written informed consent and comply with study requirements.
Exclusion criteria included: • Received other cancer treatment or investigational drug within 4 weeks prior to screening • Women who are pregnant or breastfeeding • Had major surgery within 4 weeks of first dose of study drug • Inadequate liver, renal or bone marrow function within 2 weeks of first dose • Serious concurrent illness, altered medical status or any uncontrolled medical condition • Any infection requiring antibiotic or anti-viral treatment within 4 weeks of screening • Known active HIV, HBV or HCV infection • Inability to swallow tablets • History or presence of any medical condition or disease which, in the opinion of the investigator, may place the subject at unacceptable risk for study participation. Initial 12 week overall response rate (ORR) results:
The open-label, multi-center, Phase Ib clinical trial was designed to evaluate the safety and efficacy of orally administered compound Ib plus FOLFIRINOX in 50 patients with non-resectable pancreatic cancer. Patients received 150 mg of compound Ib twice daily for 12 weeks. After 12 weeks, patients who achieved stable disease or better (as measured by Response Evaluation Criteria In Solid Tumors, or RECIST 1.1), were eligible to continue on study for at least an additional 12 weeks unless disease progression occured. Per protocol, the Eastern Cooperative Oncology Group (ECOG) performance status of patients in the trial was 0, 1 or 2.
Patients enrolled in the study had advanced non-resectable pancreatic cancer (78% of patients having metastatic disease), and an Eastern Cooperative Oncology Group (ECOG) Performance Status score of less than or equal to 2. In order to assess the initial treatment effect of compound Ib, the study provided for assessment of overall response rate (ORR) based on computerized tomography (CT) imaging following 12 weeks of treatment.
The pre-specified evaluable ORR population consists of all patients who have at least one post-baseline disease CT assessment. Response rate results at 12 weeks of treatment were as follows: […]

Setting [4] is: male, beagle, plasma, po, mean, N = 3, dosed at 2 mg/kg.
Setting [5] is: ITT Patient Population (N = 50).
[6] abbreviates: Pre-Specified Evaluable Patient Population (N = 41).

Consider `Cc1cnc(C(=O)c2ccnc3[nH]ccc23)c(NS(=O)(=O)c2ccc(Cl)c(C(F)(F)F)c2)c1` [Compound Ib], for which, in data set [1], the “Clearance compared to PF-4136309” value was “much lower”, the “Exposure (AUC) compared to PF-4136309” value is “much higher”, the clearance stood at 11.5 mL/min/kg and the bioavailability came out at 133%. This compound gave an exposure (AUC) in data set [1] of 3910 ng·h/mL. In data set [2] (at comparable doses), the “Clearance compared to PF-4136309” value is “much lower” and the “Exposure (AUC) compared to PF-4136309” value is on record as “much higher”. The compound also returned a clearance in data set [2] (male, beagle, plasma, iv, mean, N = 3, dosed at 0.5 mg/kg) of 0.7 mL/min/kg. In data set [2] (setting [4]), the AUC came to 67000 ng·h/mL and the bioavailability came out at 143%. For the same compound, in data set [3] (setting [5]), the Tumor control rate was 32/50 (64%), the Progressive disease is given as 9/50 (18%), the Stable disease is 17/50 (34%) and the Overall response rate was 15/50 (30%). Besides, the Tumor control rate in data set [3] (Pre-Specified Evaluable Patient Population (N = 41), includes stable disease, partial response and complete response) was 32/41 (78%). Further, in data set [3] (setting [6]), the Progressive disease is on record as 9/41 (22%), the Stable disease is 17/41 (41%) and the Overall response rate was 15/41 (37%). The Tolerability entry in data set [3] (advanced pancreatic cancer patients, combined with FOLFIRINOX) was “well tolerated”. Further, in data set [3] (compound Ib combined with FOLFIRINOX, versus historical FOLFIRINOX alone), the “Incidence and rate of adverse events” value was “consistent with data reported historically for FOLFIRINOX alone”.

Regarding `O=C(NCC(=O)N1CC[C@H](N[C@H]2CC[C@@](O)(c3ccc(-c4ncccn4)cn3)CC2)C1)c1cccc(C(F)(F)F)c1` [PF-04136309, reference compound], in data set [1], the clearance was found to be 71.1 mL/min/kg, the bioavailability was found to be 22% and the AUC was determined as 111 ng·h/mL.
